Assay results from article PMC5007552, “The hVps34‐SGK3 pathway alleviates sustained PI3K/Akt inhibition by stimulating mTORC1 and tumour growth” (The EMBO Journal, 2016).
pIC50: −log10 of the molar value.

How the values were obtained:
SGK3 [1] = target: T1, SGK3 (Homo sapiens, UniProt Q96BR1); experiment: IC50 on recombinant SGK3; assay type: biochemical; conditions: recombinant kinase
T1 sequence (Q96BR1 1-496): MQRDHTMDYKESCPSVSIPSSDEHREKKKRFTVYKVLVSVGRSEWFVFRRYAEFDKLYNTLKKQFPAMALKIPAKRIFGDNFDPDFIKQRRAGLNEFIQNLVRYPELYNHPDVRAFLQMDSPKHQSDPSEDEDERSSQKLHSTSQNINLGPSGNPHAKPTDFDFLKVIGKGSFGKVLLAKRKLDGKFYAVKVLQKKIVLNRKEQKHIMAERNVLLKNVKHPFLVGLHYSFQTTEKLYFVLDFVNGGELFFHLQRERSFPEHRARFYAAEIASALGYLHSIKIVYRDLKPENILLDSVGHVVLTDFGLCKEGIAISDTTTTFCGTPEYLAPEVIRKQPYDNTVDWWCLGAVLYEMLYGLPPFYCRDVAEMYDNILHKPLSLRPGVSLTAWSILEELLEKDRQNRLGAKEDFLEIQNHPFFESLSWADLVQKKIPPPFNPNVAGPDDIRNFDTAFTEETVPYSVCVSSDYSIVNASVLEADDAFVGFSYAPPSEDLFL
Experimental: (§1) The result for each kinase is presented as a mean kinase activity of the reaction taken in triplicate relative to a control reaction where the inhibitors were omitted. […] SGK3 was immunoprecipitated from cell lysates and subjected to in vitro kinase assay by measuring phosphorylation of the Crosstide substrate peptide in the presence of 0.1 mM [γ‐^32P]ATP in a 30 min 30°C reaction (upper panel). Kinase reactions are presented as means ± SD for triplicate reaction.
Appendix Figure S1. […] (A) Chemical struc tures of
Sano/f_i-14g, -14i and -14n compounds. (B) IC50 values of inhibitors on indicated recombinant k inases. […]

SGK3 [2] = target: T1, SGK3; experiment: Immunoprecipitated endogenous SGK3 kinase activity (Crosstide) and SGK3 phosphorylation from treated cells; assay type: cell-based; set-up: we immunoprecipitated endogenous SGK3 and assessed protein kinase activity; endogenous in cells; host or cells: ZR-75-1; conditions: 1 h, ZR-75-1 cells
Experimental: Briefly, SGK3, Akt and S6K1 were immunoprecipitated from 1 mg ZR‐75‐1 cell lysate. Immunoprecipitates were washed in sequence with lysis buffer containing high salt concentration (500 mM NaCl), lysis buffer and Buffer A (50 mM Tris pH 7.5, 0.1 mM EGTA). Kinase activity was assessed by measuring [γ‐^32P]ATP incorporation into Crosstide substrate peptide [[…]]. The reactions were carried in 40 μl total volume containing 0.1 mM [γ‐^32P]ATP (400–1,000 cpm/pmol), 10 mM magnesium acetate and 30 μM Crosstide peptide. Reactions were terminated by adding 10 μl 0.1 M EDTA and spotting 40 μl of the resulting reaction mix on P81 paper, which were immediately immersed into 50 mM orthophosphoric acid. Papers were washed at least five times in 50 mM orthophosphoric acid, rinsed in acetone and air‐dried. Radioactivity was quantified by Cerenkov counting. One unit of enzyme activity was defined as amount of enzyme that catalyses incorporation of 1 nmol of [γ‐^32P]ATP into the substrate over 1 min.

[3] = system: NDRG1 phosphorylation in ZR-75-1 cells; experiment: Immunoblot of NDRG1 (Thr346) phosphorylation in breast cancer cells; assay type: cell-based, human; conditions: 1 μM, 1 h; ZR-75-1, CAMA-1 (and T47D for PI3K inhibitors)
Experimental: Cell lysates were subjected to immunoblot analysis with the indicated antibodies. • ZR‐75‐1 cells cultured in serum in the absence of Akt inhibitor were treated for 1 h with the indicated concentrations of VPS34‐IN1. […] One hour prior to lysis, the cells were incubated in the presence or absence of 1 μM VPS34‐IN1. SGK3 was immunoprecipitated from lysates and subjected to in vitro kinase assay by measuring phosphorylation of the Crosstide substrate peptide in the presence of 0.1 mM [γ‐^32P]ATP in a 30 min 30°C reaction (upper panel). Kinase reactions are presented as means ± SD for triplicate reaction. Immunoprecipitates (IP) and lysates were analysed by immunoblot with the indicated antibodies. […] SGK3 was immunoprecipitated from the lysates and subjected to in vitro kinase assay as in (C). Kinase reactions are presented as means ± SD for triplicate reaction. Immunoprecipitates (IP) and lysates (lower panel) were also subjected to immunoblot analysis with the indicated antibodies. • ZR‐75‐1 cells were cultured in the absence or presence of 1 μM MK‐2206 for 5 days. Cells were then treated in the absence or presence of 0.1 μM AZD8055 or 0.1 μM rapamycin for 1 h. SGK3 was immunoprecipitated and subjected to in vitro kinase assay as in (C). Kinase reactions are presented as means ± SD for triplicate reaction. The immunoprecipitates (IP) and lysates were analysed with the indicated antibodies.
One hour prior to lysis, the cells were incubated in the presence of absence of 0.3 μM SAR405. SGK3 was immunoprecipitated from lysates and subjected to in vitro kinase assay by measuring phosphorylation of the Crosstide substrate peptide in the presence of 0.1 mM [γ‐^32P]ATP in a 30 min 30°C reaction (upper panel). Kinase reactions are presented as means ± SD for triplicate reaction. Immunoprecipitates (IP) and lysates were also analysed by immunoblot with the indicated antibodies.
as §1
HEK293 cells were purchased from the American Tissue Culture Collection (ATCC). Cells were cultured in RPMI or DMEM media supplemented with 10% (v/v) foetal bovine serum, 2 mM L‐glutamine, 100 U/ml penicillin and 0.1 mg/ml streptomycin. Inhibitor treatments were carried out as described in figure legends. During 5 days inhibitor treatments, the media was changed after 72‐h intervals. The cells were lysed in buffer containing 50 mM Tris–HCl (pH 7.5), 150 mM NaCl, 1 mM EDTA, 1 mM EGTA, 1 mM sodium orthovanadate, 10 mM sodium glycerophosphate, 10 mM sodium pyrophosphate, 0.27 M sucrose, 0.1% (v/v) 2‐mercaptoethanol, 1 mM benzamidine and 0.1 mM PMSF. Lysates were clarified by centrifugation at 16,000 g for 10 min at 4°C. Protein concentration was calculated using Bradford assay (Thermo Scientific). Immunoblotting and immunoprecipitation were performed using standard procedures. The signal was developed using ECL Western Blotting Detection Kit (Amersham) on Amersham Hyperfilm ECL film (Amersham).

## Nc1n[nH]c2nc(-c3ccc(NS(=O)(=O)c4cc(Cl)ccc4Cl)cc3)cnc12 [14h]
SGK3 [1]
  pIC50: 8.40
SGK3 [2]; 0.1 μM 14h
  reduction of SGK3 activity and phosphorylation: ~ 80%
SGK3 [2]; 1 μM 14h
  SGK3 activity and phosphorylation: undetectable

## NC1(c2ccc(-c3nc4ccn5c(=O)[nH]nc5c4cc3-c3ccccc3)cc2)CCC1 [MK-2206]
[3]
  phosphorylation of PRAS40 (Thr246) and NDRG1 (Thr346): inhibited
